We go through 28 compounds from PMC6268944.

A short description of this data set: amide bond formation (head-to-tail lactamisation): terminal amine + amino acid COOH, EDC.HCl 2.2 equiv, DMAP 0.2 equiv, substrate (HCl salt) and reagent solutions each added dropwise over 1 h. The conditions noted are these: 14-membered ring, CH2Cl2, 4.0 mM, 2 steps.

For the compound `CCN1CCN(CC)C(=O)[C@@H](C)NC(=O)[C@@H](C)NC(=O)c2nc[nH]c2C1=O`, where the note is “from CCN(CCN(CC)C(=O)[C@@H](C)N)C(=O)c1[nH]cnc1C(=O)N[C@H](C)C(=O)O, 14.0 h”, the ring closure, yield over several steps stood at 9%.
For `C[C@H]1NC(=O)c2nc[nH]c2C(=O)N(C)CCN(C)C(=O)[C@@H](C)NC1=O`, the ring closure, yield over several steps (from C[C@@H](N)C(=O)N(C)CCN(C)C(=O)c1[nH]cnc1C(=O)N[C@H](C)C(=O)O, 14.0 h) is 0%.
Regarding `CCN1CCN(CC)C(=O)[C@H](C)NC(=O)[C@H](C)NC(=O)c2nc[nH]c2C1=O` [H-Ala-[N(Et)CH2CH2N(Et)]-CO-(imidazole-4,5-diyl)-CO-Ala-OH], the ring closure, yield over several steps (from CCN(CCN(CC)C(=O)[C@H](C)N)C(=O)c1[nH]cnc1C(=O)N[C@@H](C)C(=O)O, 14.0 h) is 7%.
Take `CCN1CCN(CC)C(=O)[C@H](C)NC(=O)[C@@H](C)NC(=O)c2nc[nH]c2C1=O` [H-Ala-[N(Et)CH2CH2N(Et)]-CO-(imidazole-4,5-diyl)-CO-D-Ala-OH]: where the note is “from CCN(CCN(CC)C(=O)[C@H](C)N)C(=O)c1[nH]cnc1C(=O)N[C@H](C)C(=O)O, 14.0 h”, the ring closure, yield over several steps worked out at 8%.
For the compound `CCN1CCN(CC)C(=O)[C@H](C)NC(=O)CNC(=O)c2nc[nH]c2C1=O` [H-Ala-[N(Et)CH2CH2N(Et)]-CO-(imidazole-4,5-diyl)-CO-Gly-OH], the ring closure, yield over several steps (from CCN(CCN(CC)C(=O)[C@H](C)N)C(=O)c1[nH]cnc1C(=O)NCC(=O)O, 14.0 h) turned out to be 0%.
For the compound `C[C@@H]1NC(=O)c2nc[nH]c2C(=O)N(C)CCN(C)C(=O)[C@H](C)NC1=O` [H-Ala-[N(Me)CH2CH2N(Me)]-CO-(imidazole-4,5-diyl)-CO-Ala-OH], where the note is “from C[C@H](N)C(=O)N(C)CCN(C)C(=O)c1[nH]cnc1C(=O)N[C@@H](C)C(=O)O, 14.0 h”, the ring closure, yield over several steps turned out to be 32%.
`C[C@@H]1NC(=O)[C@@H](C)NC(=O)c2nc[nH]c2C(=O)N(C)CCN(C)C1=O` [H-Ala-[N(Me)CH2CH2N(Me)]-CO-(imidazole-4,5-diyl)-CO-D-Ala-OH]: where the note is “from C[C@H](N)C(=O)N(C)CCN(C)C(=O)c1[nH]cnc1C(=O)N[C@H](C)C(=O)O, 14.0 h”, the ring closure, yield over several steps was 0%.
On to `C[C@@H]1NC(=O)CNC(=O)c2nc[nH]c2C(=O)N(C)CCN(C)C1=O` [H-Ala-[N(Me)CH2CH2N(Me)]-CO-(imidazole-4,5-diyl)-CO-Gly-OH], for which the ring closure, yield over several steps (from C[C@H](N)C(=O)N(C)CCN(C)C(=O)c1[nH]cnc1C(=O)NCC(=O)O, 14.0 h) amounted to 0%.
Turning to `CC(C)C[C@@H]1NC(=O)c2nc[nH]c2C(=O)N(C)CCN(C)C(=O)[C@H](C)NC1=O` [H-Ala-[N(Me)CH2CH2N(Me)]-CO-(imidazole-4,5-diyl)-CO-Leu-OH], for the setting “from CC(C)C[C@H](NC(=O)c1nc[nH]c1C(=O)N(C)CCN(C)C(=O)[C@H](C)N)C(=O)O, 14.0 h”, the ring closure, yield over several steps was determined as 12%.
Turning to `CCN1CCN(CC)C(=O)[C@@H](C)NC(=O)[C@H](C)NC(=O)c2nc[nH]c2C1=O` [H-D-Ala-[N(Et)CH2CH2N(Et)]-CO-(imidazole-4,5-diyl)-CO-Ala-OH], the ring closure, yield over several steps (from CCN(CCN(CC)C(=O)[C@@H](C)N)C(=O)c1[nH]cnc1C(=O)N[C@@H](C)C(=O)O, 14.0 h) was determined as 10%.
As for `CCN1CCN(CC)C(=O)[C@@H](C)NC(=O)CNC(=O)c2nc[nH]c2C1=O` [H-D-Ala-[N(Et)CH2CH2N(Et)]-CO-(imidazole-4,5-diyl)-CO-Gly-OH], the ring closure, yield over several steps (from CCN(CCN(CC)C(=O)[C@@H](C)N)C(=O)c1[nH]cnc1C(=O)NCC(=O)O, 14.0 h) was found to be 3%.
Turning to `C[C@@H]1NC(=O)c2nc[nH]c2C(=O)N(C)CCN(C)C(=O)[C@@H](C)NC1=O` [H-D-Ala-[N(Me)CH2CH2N(Me)]-CO-(imidazole-4,5-diyl)-CO-Ala-OH], where the note is “from C[C@H](NC(=O)c1nc[nH]c1C(=O)N(C)CCN(C)C(=O)[C@@H](C)N)C(=O)O, 14.0 h”, the ring closure, yield over several steps was found to be 22%.
Take `C[C@H]1NC(=O)CNC(=O)c2nc[nH]c2C(=O)N(C)CCN(C)C1=O` [H-D-Ala-[N(Me)CH2CH2N(Me)]-CO-(imidazole-4,5-diyl)-CO-Gly-OH]: the ring closure, yield over several steps (from C[C@@H](N)C(=O)N(C)CCN(C)C(=O)c1[nH]cnc1C(=O)NCC(=O)O, 14.0 h) worked out at 0%.
As to `CC(C)C[C@@H]1NC(=O)c2nc[nH]c2C(=O)N(C)CCN(C)C(=O)[C@@H](C)NC1=O` [H-D-Ala-[N(Me)CH2CH2N(Me)]-CO-(imidazole-4,5-diyl)-CO-Leu-OH], the ring closure, yield over several steps (from CC(C)C[C@H](NC(=O)c1nc[nH]c1C(=O)N(C)CCN(C)C(=O)[C@@H](C)N)C(=O)O, 14.0 h) amounted to 11%.
For the compound `CCN1CCN(CC)C(=O)c2[nH]cnc2C(=O)N[C@@H](C)C(=O)NCC1=O` [H-Gly-[N(Et)CH2CH2N(Et)]-CO-(imidazole-4,5-diyl)-CO-Ala-OH], the ring closure, yield over several steps (from CCN(CCN(CC)C(=O)c1[nH]cnc1C(=O)N[C@@H](C)C(=O)O)C(=O)CN, 14.0 h) came to 9%.
With `CCN1CCN(CC)C(=O)c2[nH]cnc2C(=O)N[C@H](C)C(=O)NCC1=O` [H-Gly-[N(Et)CH2CH2N(Et)]-CO-(imidazole-4,5-diyl)-CO-D-Ala-OH], the ring closure, yield over several steps (from CCN(CCN(CC)C(=O)c1[nH]cnc1C(=O)N[C@H](C)C(=O)O)C(=O)CN, 14.0 h) amounted to 8%.
Consider `CCN1CCN(CC)C(=O)c2[nH]cnc2C(=O)NCC(=O)NCC1=O` [H-Gly-[N(Et)CH2CH2N(Et)]-CO-(imidazole-4,5-diyl)-CO-Gly-OH], for which the ring closure, yield over several steps (from CCN(CCN(CC)C(=O)c1[nH]cnc1C(=O)NCC(=O)O)C(=O)CN, 14.0 h) was 0%.
Consider `C[C@@H]1NC(=O)c2nc[nH]c2C(=O)N(C)CCN(C)C(=O)CNC1=O` [H-Gly-[N(Me)CH2CH2N(Me)]-CO-(imidazole-4,5-diyl)-CO-Ala-OH], for which the ring closure, yield over several steps (from C[C@H](NC(=O)c1nc[nH]c1C(=O)N(C)CCN(C)C(=O)CN)C(=O)O, 21.0 h) worked out at 7%.
Take `C[C@H]1NC(=O)c2nc[nH]c2C(=O)N(C)CCN(C)C(=O)CNC1=O` [H-Gly-[N(Me)CH2CH2N(Me)]-CO-(imidazole-4,5-diyl)-CO-D-Ala-OH]: where the note is “from C[C@@H](NC(=O)c1nc[nH]c1C(=O)N(C)CCN(C)C(=O)CN)C(=O)O, 18.0 h”, the ring closure, yield over several steps came out at 17%.
For the compound `CN1CCN(C)C(=O)c2[nH]cnc2C(=O)NCC(=O)NCC1=O` [H-Gly-[N(Me)CH2CH2N(Me)]-CO-(imidazole-4,5-diyl)-CO-Gly-OH], for the setting “from CN(CCN(C)C(=O)c1[nH]cnc1C(=O)NCC(=O)O)C(=O)CN, 10.5 h”, the ring closure, yield over several steps was 7%.
As for `CC(C)C[C@@H]1NC(=O)c2nc[nH]c2C(=O)N(C)CCN(C)C(=O)CNC1=O` [H-Gly-[N(Me)CH2CH2N(Me)]-CO-(imidazole-4,5-diyl)-CO-Leu-OH], the ring closure, yield over several steps (from CC(C)C[C@H](NC(=O)c1nc[nH]c1C(=O)N(C)CCN(C)C(=O)CN)C(=O)O, 17.5 h) worked out at 37%.
On to `CCN1CCN(CC)C(=O)[C@H](CC(C)C)NC(=O)[C@H](C)NC(=O)c2nc[nH]c2C1=O` [H-Leu-[N(Et)CH2CH2N(Et)]-CO-(imidazole-4,5-diyl)-CO-Ala-OH], for which the ring closure, yield over several steps (from CCN(CCN(CC)C(=O)[C@@H](N)CC(C)C)C(=O)c1[nH]cnc1C(=O)N[C@@H](C)C(=O)O, 14.0 h) was 11%.
In the case of `CCN1CCN(CC)C(=O)[C@H](CC(C)C)NC(=O)[C@@H](C)NC(=O)c2nc[nH]c2C1=O` [H-Leu-[N(Et)CH2CH2N(Et)]-CO-(imidazole-4,5-diyl)-CO-D-Ala-OH], the ring closure, yield over several steps (from CCN(CCN(CC)C(=O)[C@@H](N)CC(C)C)C(=O)c1[nH]cnc1C(=O)N[C@H](C)C(=O)O, 14.0 h) turned out to be 0%.
On to `CCN1CCN(CC)C(=O)[C@H](CC(C)C)NC(=O)CNC(=O)c2nc[nH]c2C1=O` [H-Leu-[N(Et)CH2CH2N(Et)]-CO-(imidazole-4,5-diyl)-CO-Gly-OH], for which the ring closure, yield over several steps (from CCN(CCN(CC)C(=O)[C@@H](N)CC(C)C)C(=O)c1[nH]cnc1C(=O)NCC(=O)O, 14.0 h) is 8%.
Consider `CCN1CCN(CC)C(=O)[C@H](CC(C)C)NC(=O)[C@H](CC(C)C)NC(=O)c2nc[nH]c2C1=O` [H-Leu-[N(Et)CH2CH2N(Et)]-CO-(imidazole-4,5-diyl)-CO-Leu-OH], for which the ring closure, yield over several steps (from CCN(CCN(CC)C(=O)[C@@H](N)CC(C)C)C(=O)c1[nH]cnc1C(=O)N[C@@H](CC(C)C)C(=O)O, 14.0 h) was 0%.
Regarding `CC(C)C[C@@H]1NC(=O)[C@H](C)NC(=O)c2nc[nH]c2C(=O)N(C)CCN(C)C1=O` [H-Leu-[N(Me)CH2CH2N(Me)]-CO-(imidazole-4,5-diyl)-CO-Ala-OH], the ring closure, yield over several steps (from CC(C)C[C@H](N)C(=O)N(C)CCN(C)C(=O)c1[nH]cnc1C(=O)N[C@@H](C)C(=O)O, 14.0 h) was 14%.
Turning to `CC(C)C[C@@H]1NC(=O)[C@@H](C)NC(=O)c2nc[nH]c2C(=O)N(C)CCN(C)C1=O` [H-Leu-[N(Me)CH2CH2N(Me)]-CO-(imidazole-4,5-diyl)-CO-D-Ala-OH], the ring closure, yield over several steps (from CC(C)C[C@H](N)C(=O)N(C)CCN(C)C(=O)c1[nH]cnc1C(=O)N[C@H](C)C(=O)O, 14.0 h) was found to be 37%.
Consider `CC(C)C[C@@H]1NC(=O)CNC(=O)c2nc[nH]c2C(=O)N(C)CCN(C)C1=O` [H-Leu-[N(Me)CH2CH2N(Me)]-CO-(imidazole-4,5-diyl)-CO-Gly-OH], for which, where the note is “from CC(C)C[C@H](N)C(=O)N(C)CCN(C)C(=O)c1[nH]cnc1C(=O)NCC(=O)O, 14.0 h”, the ring closure, yield over several steps turned out to be 0%.
